This is an account of results in PubChem BioAssay AID493250 (Broad Institute, 2011).

Active and inactive are the calls of the source.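 Rule for the calls: active = signal decrease with fitted half-maximal dose at or below ten times the highest valid tested dose; inconclusive = poor fit, or flat fit at 30 to 70% inhibition; inactive = the rest.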

Zinc finger protein mex-5 (Caenorhabditis elegans), sequence (Q9XUB2 whole entry, looked up): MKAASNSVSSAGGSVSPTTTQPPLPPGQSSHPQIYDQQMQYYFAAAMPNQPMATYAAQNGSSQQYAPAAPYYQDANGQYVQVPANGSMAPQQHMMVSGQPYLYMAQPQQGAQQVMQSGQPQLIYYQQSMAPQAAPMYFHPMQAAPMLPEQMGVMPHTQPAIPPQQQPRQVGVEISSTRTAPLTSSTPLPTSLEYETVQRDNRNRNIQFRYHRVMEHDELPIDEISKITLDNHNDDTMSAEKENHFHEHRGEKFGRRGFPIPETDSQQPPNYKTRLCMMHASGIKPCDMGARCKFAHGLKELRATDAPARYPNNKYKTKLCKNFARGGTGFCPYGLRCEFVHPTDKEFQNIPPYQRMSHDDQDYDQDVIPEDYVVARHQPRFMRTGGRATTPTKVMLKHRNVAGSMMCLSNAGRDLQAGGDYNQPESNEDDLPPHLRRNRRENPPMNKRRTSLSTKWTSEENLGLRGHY

One experiment addresses Zinc finger protein mex-5 (Caenorhabditis elegans) (UniProt Q9XUB2). As to the kind of experiment: inhibitors of MEX-5 RNA binding, dose response, biochemical, fluorescence polarization, C. elegans, cherry-picked, round 3 (AID 493250). The note with it: purified MEX-5-MBP, FITC-TCR2 RNA fluorescence polarization.
For the molecule `Cc1cccc(N2C(=O)NC(=O)/C(=C/c3cc4c(cc3[N+](=O)[O-])OCO4)C2=O)c1`, the AC50 (commonly the midpoint of the concentration-response curve, whichever way the signal moves) was 9.86 µM.

Turning to `COc1ccc(/C(O)=C/c2nc3ccccc3n(-c3ccccc3)c2=O)cc1`, the AC50 is 3.25 µM.

On to `COc1ccc(OC)c(NC(=O)c2sc3nc(Cc4ccccc4)cc(C(F)(F)F)c3c2N)c1`, for which the AC50 was 6.44 µM.

For the molecule `CCOc1cc(/C=C2\CCCc3c2nc2ccccc2c3C(=O)O)ccc1OC`, the AC50 was 0.906 µM.

Regarding `COc1ccc(-n2c(O)c(/C=N/NS(=O)(=O)c3cc(C)ccc3C)c3ccccc3c2=O)cc1OC`, the AC50 is 1.32 µM.

As to `Cc1ccc(S(=O)(=O)c2cc3c(=O)n4ccccc4nc3n(C3CCCCC3)c2=N)cc1`, the AC50 is > 10 µM (inactive).

On to `COC(=O)C1=COC(C)C2CN3CCc4c([nH]c5ccccc45)C3CC12` (stereo not given), for which the AC50 was 4.21 µM.

Regarding `COc1ccc(Cl)cc1CN1CCN(c2nc(C)cc(C)c2C#N)CC1`, the AC50 is 9.41 µM.

Take `CN1CC=C2C(C#N)=C(N)C(C#N)(C#N)C(Cc3ccccc3)C2C1` (stereo not given): the half-maximal activity concentration (AC50) is 4.69 µM.

In the case of `CNC(=O)c1sc(N2N=C3/C(=C/c4ccccc4)CCCC3C2c2ccccc2)nc1C` (stereo not given), the AC50 was 7.59 µM.

In the case of `CCOC(=O)C1C(=O)C=C(/C=C/c2ccc(N(C)C)cc2)CC1c1ccccc1` (stereo not given), the AC50 is 7.41 µM.

Take `O=C1C(Cl)=C(NC2CCCCC2)C(=O)N1c1ccc(Cl)cc1`: the AC50 is > 10 µM (inactive).

Take `CNC(=O)c1cc2ccc(OC)cc2oc1=O`: the AC50 is > 10 µM (inactive).

The experiment is the same for the next values; noted with them: purified MEX-5-MBP, FITC-TCR2 RNA fluorescence polarization; at 10 µM (top of the series).
For `CC(=O)Nc1ccc(/C=N/NC(=O)CNS(=O)(=O)c2ccccc2)cc1`, the “activity change, negative = inhibition” value is “inactive”.

On to `O=C1NC(=O)/C(=C/c2ccc(N3CCOCC3)o2)N1`, for which the “activity change, negative = inhibition” value is “inactive”.

Turning to `Cc1ccc(Nc2nc(-c3ccc(C)cc3)c(CC(=O)O)s2)cc1`, the “activity change, negative = inhibition” value was “inactive”.

On to `CCN(CC)c1ccc(C(=O)N/N=C(\C)c2cccnc2)cc1`, for which the “activity change, negative = inhibition” value is “inactive”.

`COc1cccc(NCc2cc(=O)oc3cc(C)c(C(C)C)cc23)c1`: the “activity change, negative = inhibition” value was “inactive”.

With `CCOc1ccccc1C1NC(=O)NC(C)=C1C(=O)OCc1ccccc1` (stereo not given), the “activity change, negative = inhibition” value was “inactive”.

`CC(C)(C)CC(C)(C)NCC(O)COc1ccc2c(c1)CCC2` (stereo not given): the “activity change, negative = inhibition” value was “inactive”.

For `COc1ccc(-c2cn[nH]c2-c2ccc(O)cc2O)cc1OC`, the “activity change, negative = inhibition” value is “inactive”.

As for `COCCN1CCC(CNCc2cn(-c3cc(C)ccc3C)nc2-c2ccccc2)C1` (stereo not given), the “activity change, negative = inhibition” value is “inactive”.

In the case of `CC(C#N)(Nc1ccc(Cl)cc1)c1cccnc1` (stereo not given), the “activity change, negative = inhibition” value was “inactive”.

Take `COc1ccc(OC)c(/C=C/C(=O)Nc2ccc(OC)nc2)c1`: the “activity change, negative = inhibition” value is “inactive”.

For `CCN=c1scc(-c2ccco2)n1/N=C/c1ccc(O)cc1`, the “activity change, negative = inhibition” value is “inactive”.

Consider `COc1cc(OC)c2ccc(=O)oc2c1C(CC(=O)N1CCCC1)c1ccc(N(C)C)cc1` (stereo not given), for which the “activity change, negative = inhibition” value is “inactive”.

`N#CCCn1c2ccccc2c2nc3ccccc3nc21`: the “activity change, negative = inhibition” value was “inactive”.

Consider `COc1ccc2c(c1)-c1ccccc1S(=O)(=O)N2C(C)=O`, for which the “activity change, negative = inhibition” value was “inactive”.

Regarding `COc1ccc(NC(=O)/C=C/c2cccc(C(F)(F)F)c2)cn1`, the “activity change, negative = inhibition” value is “inactive”.

Take `O=C(Nc1cccnc1)c1cccs1`: the “activity change, negative = inhibition” value is “inactive”.

With `N=C(N)N=Nc1c(O)[nH]c2ccc(Br)cc12`, the “activity change, negative = inhibition” value was “inactive”.

Regarding `N#Cc1cc2c(=O)n3ccccc3nc2n(CCCN2CCOCC2)c1=O`, the “activity change, negative = inhibition” value was “inactive”.

On to `O=C(O)c1ccccc1N=Nc1c(O)[nH]c2ccc([N+](=O)[O-])cc12`, for which the “activity change, negative = inhibition” value is “inactive”.

On to `COc1ccc(C2NC(=O)N(CCCC(=O)O)C(C)=C2C(=O)OCc2ccccc2)cc1` (stereo not given), for which the “activity change, negative = inhibition” value was “inactive”.

On to `CCOc1cc(/C=N/Nc2nc(=O)[nH]nc2C)ccc1O`, for which the “activity change, negative = inhibition” value is “inactive”.

`Cc1cccc(C(=O)NNC(=O)c2csc(N3CCOCC3)n2)c1C`: the “activity change, negative = inhibition” value was “inactive”.

As to `COC(=O)/C(C#N)=C/c1c(-c2ccccc2)nc2n1CCS2`, the “activity change, negative = inhibition” value is “inactive”.

As to `CCN(CC)c1ccc(N2C(=O)c3ccccc3C2=O)cc1`, the “activity change, negative = inhibition” value was “inactive”.

As to `COC(=O)c1cc(NC(=O)c2ccccc2)c(=O)oc1C`, the “activity change, negative = inhibition” value was “inactive”.

Regarding `O=C(NNC(=O)c1ccccc1[N+](=O)[O-])c1ccco1`, the “activity change, negative = inhibition” value is “inactive”.

On to `CCc1cc(-c2n[nH]c(C)c2-c2nc3ccccc3s2)c(O)cc1OCC(=O)NN`, for which the “activity change, negative = inhibition” value is “inactive”.

Regarding `O=C(NN=C1C2CC3CC1CC(Cl)(C3)C2)c1ccccn1`, the “activity change, negative = inhibition” value is “inactive”.

On to `O=C(O)c1ccc2c(c1)ncn2C1CCCCC1`, for which the “activity change, negative = inhibition” value is “inactive”.

`Cc1ccc(C)c(NC(=O)CCC(=O)NNC(=S)Nc2ccccc2)c1`: the “activity change, negative = inhibition” value is “inactive”.

As for `Oc1cccc(NC(=S)N=Nc2c(O)[nH]c3ccccc23)c1`, the “activity change, negative = inhibition” value is “inactive”.

For the molecule `C#CCOCCOCCOCCNc1nc(N2CCN(C(=O)[C@H](CCCCN)n3cc(C(N)CO)nn3)CC2)nc(N2CCN(C(=O)[C@H](CCC(=O)O)n3cc(C(N)CC(C)C)nn3)CC2)n1` (stereo not given in full), the “activity change, negative = inhibition” value is “inactive”.

Consider `COc1ccc2nc3ccccc3nc2c1N`, for which the “activity change, negative = inhibition” value was “inactive”.

Regarding `Cc1nn(C(C)C(=O)NNC(=S)Nc2ccc(Cl)cc2)c(C)c1[N+](=O)[O-]` (stereo not given), the “activity change, negative = inhibition” value is “inactive”.

Consider `O=c1[nH]cnc2c1C(c1ccccc1[N+](=O)[O-])c1c(nc[nH]c1=O)O2`, for which the “activity change, negative = inhibition” value is “inactive”.

`CCOc1ccc(/C=C/C(=O)c2ccccc2)cc1`: the “activity change, negative = inhibition” value was “inactive”.

Take `CCC(=O)NCCc1nc2ccccc2n1Cc1ccccc1`: the “activity change, negative = inhibition” value is “inactive”.

In the case of `COc1cc(/C=N/NC(=S)Nc2cccc(C(=O)O)c2)ccc1O`, the “activity change, negative = inhibition” value was “inactive”.

`O=C(Cc1csc(N2CCOCC2)n1)N/N=C/c1ccc(O)c(O)c1O`: the “activity change, negative = inhibition” value was “inactive”.

In the case of `COc1ccc(NCc2cccnc2)cc1`, the “activity change, negative = inhibition” value is “inactive”.

For the molecule `COc1ccc(N=Nc2c(C)[nH][nH]c2=O)cc1`, the “activity change, negative = inhibition” value was “inactive”.

As to `CCOC(=O)C1Cc2ccccc2C(=O)O1` (stereo not given), the “activity change, negative = inhibition” value is “inactive”.

As for `COc1cc2c(cc1OC)[C@@H](Cc1ccc(OCCC#N)cc1)N(C)CC2`, the “activity change, negative = inhibition” value is “inactive”.

For `Oc1cccc(/C=N/NC(=S)Nc2cccnc2)c1O`, the “activity change, negative = inhibition” value is “inactive”.

As for `Cn1ncc2c(NNC(=O)c3ccccc3Cl)ncnc21`, the “activity change, negative = inhibition” value was “inactive”.

Turning to `COc1ccc(CC(=O)NNc2ncnc3c2cnn3C)cc1OC`, the “activity change, negative = inhibition” value was “inactive”.

In the case of `CCOC(=O)c1cnc2c(N=Nc3ccccc3)c(N)nn2c1N`, the “activity change, negative = inhibition” value was “inactive”.

Take `CC(=O)c1cc(NC(=O)c2ccc(C)cc2)c(=O)oc1C`: the “activity change, negative = inhibition” value is “inactive”.

Take `COCc1cc(C)nc(N/N=C/c2ccc(-c3cc(C(=O)O)ccc3Cl)o2)c1C#N`: the “activity change, negative = inhibition” value was “inactive”.

With `COc1ccc(/C=N/NC(=O)c2ccc(=O)[nH]n2)cc1OC`, the “activity change, negative = inhibition” value was “inactive”.

Regarding `O=C(O)CCSc1nc2ccccc2n1Cc1ccccc1`, the “activity change, negative = inhibition” value was “inactive”.

Consider `N#CC1=C(N)Oc2c(O)cc3ccccc3c2C1c1ccsc1` (stereo not given), for which the “activity change, negative = inhibition” value was “inactive”.

In the case of `O=C1/C(=C\c2ccc(Br)o2)Cc2ccccc21`, the “activity change, negative = inhibition” value is “inactive”.

In the case of `COc1cccc(NCc2cc(=O)oc3cc(C)c(O)cc23)c1`, the “activity change, negative = inhibition” value is “inactive”.

Regarding `COCCNC(=S)N/N=C/c1c2ccccc2cc2ccccc12`, the “activity change, negative = inhibition” value is “inactive”.

Turning to `CCN(CC)c1ccc2nc3ccccc3[n+](CC)c2c1`, the “activity change, negative = inhibition” value is “inactive”.

As to `N#C/C(=N\Nc1cccc(C(F)(F)F)c1)C(=O)c1ccsc1`, the “activity change, negative = inhibition” value was “inactive”.

On to `O=C(N/N=C/c1ccncc1)c1cc([N+](=O)[O-])cc([N+](=O)[O-])c1O`, for which the “activity change, negative = inhibition” value is “inactive”.

Take `CCCCCC(=O)N(Cc1ccccc1)c1c(N)n(CCOC)c(=O)[nH]c1=O`: the “activity change, negative = inhibition” value was “inactive”.

For the molecule `Cc1ccc(C(=O)N/C(=C\c2ccc(-c3ccc(Cl)cc3)o2)C(=O)NCCCN(C)C)cc1`, the “activity change, negative = inhibition” value was “inactive”.

As for `CCc1ccc(S(=O)(=O)/N=C2\C=C(Nc3ccc(C(=O)O)cc3)C(=O)c3ccccc32)cc1`, the “activity change, negative = inhibition” value was “inactive”.

On to `CCCOc1ccc(C2=CSC3=NCCN23)cc1[N+](=O)[O-]`, for which the “activity change, negative = inhibition” value is “inactive”.

Regarding `COc1ccc(C(CC(=O)N2CCCC2)c2c(OC)cc(OC)c3ccc(=O)oc23)cc1` (stereo not given), the “activity change, negative = inhibition” value is “inactive”.

For `CCN(CC(=O)Nc1ccc(NC(C)=O)cc1)Cc1c(O)ccc2cc(Br)ccc12`, the “activity change, negative = inhibition” value was “inactive”.

For `C=CCc1cccc2cc(C(=O)NNC(=O)CC#N)c(=O)oc12`, the “activity change, negative = inhibition” value is “inactive”.

For `O=C1S/C(=C\c2cccs2)C(=O)N1c1ccc(O)cc1`, the “activity change, negative = inhibition” value was “inactive”.

Turning to `CC1=C(C(=O)OCc2ccccc2)C(c2cccc([N+](=O)[O-])c2)NC(=O)N1C` (stereo not given), the “activity change, negative = inhibition” value was “inactive”.

Take `CCCCn1c(N)c(N(Cc2ccccc2OC)C(=O)C(C)C)c(=O)[nH]c1=O`: the “activity change, negative = inhibition” value was “inactive”.

With `Nc1ccc([N+](=O)[O-])cc1C(=O)NNC(=O)c1ccco1`, the “activity change, negative = inhibition” value was “inactive”.

For `CSCCCN1CCC(n2nccc2NC(=O)CCCc2ccccc2)CC1`, the “activity change, negative = inhibition” value was “inactive”.

Turning to `CN1CN(C)c2ccc([N+](=O)[O-])c3cccc1c23`, the “activity change, negative = inhibition” value is “inactive”.
